Experimental data taken from patent US10517889B2, “Modulators of SMAD7 expression” (Ionis Pharmaceuticals, Inc., priority 2017, dated 2019).
“And” between values parts separate entries of the source, which are not always exact repeats. Equal entries are not always repeated. Strand notation (5' to 3'): a small letter for the sugar, then the base; units joined by * are phosphorothioate-linked, units joined directly phosphodiester-linked; [ ] holds rarer units or linkages, { } end groups; capitals alone tell only the bases. k = constrained ethyl (cEt); [5mC] = 5-methylcytosine; d = 2'-deoxy (DNA)

Experiments:
[1] = test system: human SMAD7 mRNA; assay: Antisense inhibition of human SMAD7 mRNA expression in Hep3B cells by 3-10-3 cEt gapmers, 10,000 nM, electroporation (Example 2); type: cell-based; details: approximately 24 hours
Summary of the method: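 Hep3B, 20,000 cells/well; electroporation, 10,000 nM ASO; ~24 h. Readout: SMAD7 mRNA by qRT-PCR (RTS5062), RIBOGREEN-normalised; % inhibition vs untreated.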

[2] = test system: human SMAD7 mRNA; assay: Dose-dependent inhibition of human SMAD7 mRNA expression in Hep3B cells (Example 3, Study 1 and 2); type: cell-based; details: electroporation; for % inhibition of SMAD7 mRNA expression: approximately 16 hours; for IC50: Study 2 (740-20000 nM)
Experimental: The antisense oligonucleotides were tested in a series of experiments that had similar culture conditions as described below.
(§1) Cells were plated at a density of 20,000 cells per well and transfected using electroporation with 0.31 μM, 1.25 μM, 5.00 μM, or 20.00 μM concentrations of antisense oligonucleotide, as specified in the Tables below. ION 483663 was included in the assays for comparison. After a treatment period of approximately 16 hours, RNA was isolated from the cells and SMAD7 mRNA levels were measured by quantitative real-time PCR. Primer probe set RTS5062 was used to measure human SMAD7 mRNA levels. SMAD7 mRNA levels were adjusted according to total RNA content, as measured by RIBOGREEN®. Results are presented as percent inhibition of SMAD7 mRNA expression, relative to untreated control cells.
The half maximal inhibitory concentration (IC50) of each oligonucleotide is also presented.
as §1, with “0.74” for “0.31”, “2.22” for “1.25”, “6.67” for “5.00”, “below.” for “below. ION 483663 was included in the assays for comparison.”

[3] = Hep3B cells, electroporation with 10,000 nM antisense oligonucleotide, SMAD7 mRNA by RT-PCR (RTS5062), relative to untreated control cells
[4] = 740 nM, Study 2, relative to untreated control cells
[5] = Hep3B cells, electroporation with 10,000 nM antisense oligonucleotide, RTS5062, percent inhibition of SMAD7 mRNA relative to untreated control cells
[6] = Hep3B cells, electroporation with 10,000 nM antisense oligonucleotide, primer probe set RTS5062, relative to untreated control cells

| Substance | % Inhibition [1, 3] [%] | % inhibition of SMAD7 mRNA expression [2, 4] | % inhibition of SMAD7 mRNA expression ([2]; 2220 nM, Study 2) | % inhibition of SMAD7 mRNA expression ([2]; 6670.0 nM, Study 2) | % inhibition of SMAD7 mRNA expression ([2]; 20000.0 nM, Study 2) [%] | IC50 [2] | % Inhibition ([1]; SMAD7 mRNA, Hep3B cells, electroporation with 10,000 nM antisense oligonucleotide, primer probe set RTS5062, relative to untreated control cells) [%] | % Inhibition [1, 5] [%] | % Inhibition ([1]; SMAD7 mRNA, Hep3B cells, 10,000 nM antisense oligonucleotide, electroporation, primer probe set RTS5062, relative to untreated control cells) [%] | % Inhibition ([1]; Hep3B cells, 10,000 nM antisense oligonucleotide, electroporation, RT-PCR primer probe set RTS5062, relative to untreated control cells) [%] | % inhibition of SMAD7 mRNA expression [1, 6] [%] | % inhibition of SMAD7 mRNA expression ([1]; Hep3B cells, electroporation, 10,000 nM, 3-10-3 cEt gapmers targeting SEQ ID NO: 3 and 4) [%] |
| --- | --- | --- | --- | --- | --- | --- | --- | --- | --- | --- | --- | --- |
| 830208 (kA*kA*kG*dG*dT*dG*dA*d[5mC]*dT*d[5mC]*dA*dT*d[5mC]*kA*kG*kG; antisense) [compound 830208] | 57 | 38% | 70% | 79% | 90 | 1000 nM | – | – | – | – | – | – |
| 829980 (kT*kT*kG*dA*dT*dA*dT*dT*dT*dA*dG*d[5mC]*dT*kG*kT*k[5mC]; antisense) [compound 829980] | – | 52% | 63% | 79% | 92 | 3000 nM | 56 | – | – | – | – | – |
| 799808 (antisense kG*k[5mC]*kT*dG*dA*dA*dA*dG*dA*dA*dA*dG*dT*k[5mC]*k[5mC]*k[5mC]) [compound 799808] | – | 8% | 33% | 52% | 73 | 10000 nM | – | 70 | – | – | – | – |
| 830142 (antisense kT*kG*kT*dG*d[5mC]*dA*d[5mC]*d[5mC]*dA*dG*dG*dT*dG*kA*kG*k[5mC]) [compound 830142] | 60 | 13% | 37% | 32% | 49 | > 20000 nM | – | – | – | – | – | – |
| 799566 (kG*kA*kG*dT*dA*dA*dA*d[5mC]*dA*dA*dT*dA*d[5mC]*k[5mC]*k[5mC]*kT; antisense) [compound 799566] | – | 0% and 10% | 32% and 64% | 63% and 82% | – | 2000 nM and 1000 nM | – | 74 | 89 | – | – | – |
| 800010 (kG*kT*kT*dA*dT*dT*dT*dA*dA*dT*dT*dA*d[5mC]*k[5mC]*k[5mC]*kT; antisense) [compound 800010] | – | 33% | 13% | 47% | 59 | 6000 nM | – | – | – | 69 | – | – |
| 772560 (antisense kT*kT*kG*d[5mC]*dA*d[5mC]*dA*dG*d[5mC]*dA*dG*dG*dA*kG*kG*kG) [compound 772560] | – | 0% | 32% | 57% | 82 | 5000 nM | – | – | – | – | 66 | – |
| 799365 (k[5mC]*kT*k[5mC]*d[5mC]*dG*dA*dG*dT*dT*dA*dT*d[5mC]*d[5mC]*k[5mC]*k[5mC]*kA; antisense) [compound 799365] | – | 11% | 39% | 73% | 94 | 4000 nM | – | – | – | – | 61 | – |
| 829942 (kG*k[5mC]*kA*dT*d[5mC]*dT*dG*dG*dA*d[5mC]*dA*dG*dT*k[5mC]*kA*kG; antisense) [compound 829942] | – | 44% | 70% | 84% | 94 | < 700 nM | – | – | – | – | – | 92 |
| 799410 (antisense kT*k[5mC]*kT*dG*dT*dT*dT*dA*d[5mC]*dA*d[5mC]*dA*d[5mC]*kA*kT*kT) [compound 799410] | 79 | 26% | 42% | 64% | 74 | 2000 nM | – | – | – | – | – | – |
